Patent US4098778A, “β-Endorphin analog” (Hoffmann-La Roche Inc., priority 1977, dated 1978)

Assays:
mice = experiment: Analgesic activity in mice by the tail-flick method, peptide injected icv; format: in vivo; details: for In vivo analgesic activity Relative Potency: molar basis, βc-endorphin = 100; for In vivo analgesic activity AD50: tail-flick, male ICR mice, (95% confidence limit)
Procedure: The analgesic activity of the synthetic products was assessed in mice by the tail-flick method of D'Amour and Smith J. Pharmacol. Exp. Ther. 72, 74 (1941). Male ICR mice weighing 25-30 g were used. The peptide was injected icv in a volume of 5 μl as described by Haley and McCormick, Br. J. Pharmacol. 12, 12 (1957). To evaluate the tail-flick response, a control latency (T0) was obtained from the mean of two latencies determined prior to the peptide injection; the test latencies (T1) were determined at various times after injection for each animal. "Percent analgesia" was calculated as [(T1 -T0)/(T2 -T0)] × 100; where the cutoff time (T2) was 10 sec. With a twofold increase in latency of reaction time of the reponse as a quantal index of inhibition, the median antinociceptive dose (AD50) and 95% confidence limits were calculated as described by Litchfield and Wilcoxon, J. Pharmacol. Exp. Ther. 96, 99 (1949).

guinea pig ileum = experiment: In vitro opiate activity, guinea pig ileum method of Kosterlitz et al.; format: cell-based; details: for In vitro opiate activity: guinea pig ileum, βc-endorphin = 100
Description: The opiate activity of the peptide of the invention, the parent peptide and other fragment analogs thereof as assayed in vitro by the guinea pig ileum method of Kosterlitz et al., Brit. J. Pharmacol. 39, 398 (1970) is seen in Table 2 below.

## βc -Endorphin-(1-5)-(28-31)
mice
  In vivo analgesic activity Relative Potency: < 0.1
mice; icv
  In vivo analgesic activity AD50: > 86 μg/mouse
Guinea pig ileum
  In vitro opiate activity: 35

## βc -endorphin (6-31) (TSEKSQTPLVTLFKNAIIKNAHKKGQ; Beta-endorphin; UniProt P01203 6-31, looked up, fragment) [βc -Endorphin-(6-31)]
mice; doses of 42.5 and 85 μg, icv, mice
  inhibition of the tail-flick response: slight inhibition of the tail-flick response
mice; mice
  analgesic activity (tail flick method): intrinsic measurable analgesic activity
mice
  In vivo analgesic activity Relative Potency: < 0.1
mice; icv
  In vivo analgesic activity AD50: > 86 μg/mouse
Guinea pig ileum; activity as assayed in vitro
  reversal of activity by naloxone: not reversed by naloxone
Guinea pig ileum
  In vitro opiate activity: 4
Guinea pig ileum; of βc-endorphin
  potency relative to βc-endorphin as assayed in vitro: 4%

## βc -endorphin (YGGFMTSEKSQTPLVTLFKNAIIKNAHKKGQ; Beta-endorphin; UniProt P01203 1-31, looked up) [parent peptide]
mice
  In vivo analgesic activity Relative Potency: 100
mice; icv
  In vivo analgesic activity AD50: 0.11 (0.07-0.17) μg/mouse
Guinea pig ileum
  In vitro opiate activity: 100

## βh -Endorphin-(1-5)-(16-31)
mice
  In vivo analgesic activity Relative Potency: 0.3
mice; icv
  In vivo analgesic activity AD50: 25.1(16.8-37.1) μg/mouse
Guinea pig ileum
  In vitro opiate activity: 135
